Experimental data taken from US7964630B2, “Topical application agents against mimic and age-related wrinkles” (DSM IP Assets B.V., priority 2004, dated 2011).
Non-standard residues stand in square brackets, D forms with d. Residues, ends and D or L forms follow the SMILES beside them. *: point of attachment. NHPhenethyl = c1ccc(CCN*)cc1; Dap = NC[CH](N)C(=O)O; NHBn = c1ccc(CN*)cc1

Columns and labels:
[1] = test system: co-culture model of human muscle cells and neurons from the spinal marrow of rat embryos; assay: Efficacy test: frequency of muscle contractions in a nerve-muscle co-culture model; type: cell-based, human (myoblasts), rat (embryo spinal explants); settings: for Variation Δ [in %] of the number of muscle contractions (1 min): 1 minute after incubation; for Variation Δ [in %] of the number of muscle contractions (1 min) / Variation Δ [in %] of the number of muscle contractions (2 h) / Variation Δ [in %] of the number of muscle contractions (48 h): contractions counted for 30 seconds, compared to number before incubation, means of 3 measurements; for Variation Δ [in %] of the number of muscle contractions (2 h): 2 hours after incubation; for Variation Δ [in %] of the number of muscle contractions (48 h): 48 hours after incubation
Description: Culture conditions: 37° C., 5% CO2 In order to test the efficacy of the compounds of the present invention, a co-culture model of human muscle cells on one hand and neurons from the spinal marrow of rat embryos on the other hand was established. Normal human muscle cells (myoblasts) were cultured in gelatine-coated 24-well plates until a monolayer of myofibrils (from fused muscle cells) had formed. Afterwards, an explant of the spinal marrow of a 13 day-old rat embryo with dorsal root ganglia was placed on the muscle cell monolayer. After one day of co-culture, the first axons were seen to grow out of the explant to come in contact with muscle cells. The first contractions appeared after 5 days. […] At this stage of development, the myofibrils performed regular contractions and the model was used for the tests.

[2] = test system: Ca++-dependent neurotransmitter release in the synapses; settings: cited from earlier work

CC(N)C(=O)N1CCCC1C(=O)NC(CCCNC(=N)N)C(=O)NCc1ccccc1 (stereo not drawn) [4.2] (H-Ala-Pro-Arg-NHBn; configuration not given here)
Variation Δ [in %] of the number of muscle contractions (1 min) ([1]; 0.1 mM): 85%
Variation Δ [in %] of the number of muscle contractions (2 h) ([1]; 0.1 mM): 78%
Variation Δ [in %] of the number of muscle contractions (48 h) ([1]; 0.1 mM): 37%
Variation Δ [in %] of the number of muscle contractions (1 min) ([1]; 0.5 mM): 93%
Variation Δ [in %] of the number of muscle contractions (2 h) ([1]; 0.5 mM): 37%
Variation Δ [in %] of the number of muscle contractions (48 h) ([1]; 0.5 mM): 36%
Variation Δ [in %] of the number of muscle contractions (1 min) ([1]; 1.0 mM): 85%
Variation Δ [in %] of the number of muscle contractions (2 h) ([1]; 1.0 mM): 12%
Variation Δ [in %] of the number of muscle contractions (48 h) ([1]; 1.0 mM): 60%

CC(N)C(=O)N1CCCC1C(=O)NC(CCCNC(=N)N)C(=O)NC(CCCNC(=N)N)C(=O)NCc1ccccc1 (stereo not shown) [4.3] (H-APRR-NHBn; configuration not given here)
Variation Δ [in %] of the number of muscle contractions (1 min) ([1]; 0.1 mM): 91%
Variation Δ [in %] of the number of muscle contractions (2 h) ([1]; 0.1 mM): 5%
Variation Δ [in %] of the number of muscle contractions (48 h) ([1]; 0.1 mM): 88%
Variation Δ [in %] of the number of muscle contractions (1 min) ([1]; 0.5 mM): 73%
Variation Δ [in %] of the number of muscle contractions (2 h) ([1]; 0.5 mM): 1%
Variation Δ [in %] of the number of muscle contractions (48 h) ([1]; 0.5 mM): 87%
Variation Δ [in %] of the number of muscle contractions (1 min) ([1]; 1.0 mM): 25%
Variation Δ [in %] of the number of muscle contractions (2 h) ([1]; 1.0 mM): 0%
Variation Δ [in %] of the number of muscle contractions (48 h) ([1]; 1.0 mM): 7%

N=C(N)NCCCC(NC(=O)C1CCCN1C(=O)C(N)CN)C(=O)NCc1ccccc1 (stereo not drawn) [4.6] (H-[Dap]-Pro-Arg-NHBn; configuration not given here)
Variation Δ [in %] of the number of muscle contractions (1 min) ([1]; 0.1 mM): 85%
Variation Δ [in %] of the number of muscle contractions (2 h) ([1]; 0.1 mM): 68%
Variation Δ [in %] of the number of muscle contractions (48 h) ([1]; 0.1 mM): 43%
Variation Δ [in %] of the number of muscle contractions (1 min) ([1]; 0.5 mM): 78%
Variation Δ [in %] of the number of muscle contractions (2 h) ([1]; 0.5 mM): 42%
Variation Δ [in %] of the number of muscle contractions (48 h) ([1]; 0.5 mM): 0%
Variation Δ [in %] of the number of muscle contractions (1 min) ([1]; 1.0 mM): 68%
Variation Δ [in %] of the number of muscle contractions (2 h) ([1]; 1.0 mM): 35%
Variation Δ [in %] of the number of muscle contractions (48 h) ([1]; 1.0 mM): 0%

CC(N)C(=O)N1CCCC1C(=O)NC(CCCNC(=N)N)C(=O)NCCc1ccccc1 (stereo not drawn) [4.7] (H-Ala-Pro-Arg-NHPhenethyl; configuration not given here)
Variation Δ [in %] of the number of muscle contractions (1 min) ([1]; 0.1 mM): 103%
Variation Δ [in %] of the number of muscle contractions (2 h) ([1]; 0.1 mM): 69%
Variation Δ [in %] of the number of muscle contractions (48 h) ([1]; 0.1 mM): 74%
Variation Δ [in %] of the number of muscle contractions (1 min) ([1]; 0.5 mM): 91%
Variation Δ [in %] of the number of muscle contractions (2 h) ([1]; 0.5 mM): 0%
Variation Δ [in %] of the number of muscle contractions (48 h) ([1]; 0.5 mM): 34%
Variation Δ [in %] of the number of muscle contractions (1 min) ([1]; 1.0 mM): 105%
Variation Δ [in %] of the number of muscle contractions (2 h) ([1]; 1.0 mM): 65%
Variation Δ [in %] of the number of muscle contractions (48 h) ([1]; 1.0 mM): 3%

COc1ccc(CNC(=O)C(CCCNC(=N)N)NC(=O)C2CCCN2C(=O)C(C)N)cc1 (stereo not shown) [4.8]
Variation Δ [in %] of the number of muscle contractions (1 min) ([1]; 0.1 mM): 85%
Variation Δ [in %] of the number of muscle contractions (2 h) ([1]; 0.1 mM): 37%
Variation Δ [in %] of the number of muscle contractions (48 h) ([1]; 0.1 mM): 132%
Variation Δ [in %] of the number of muscle contractions (1 min) ([1]; 0.5 mM): 84%
Variation Δ [in %] of the number of muscle contractions (2 h) ([1]; 0.5 mM): 90%
Variation Δ [in %] of the number of muscle contractions (48 h) ([1]; 0.5 mM): 78%
Variation Δ [in %] of the number of muscle contractions (1 min) ([1]; 1.0 mM): 100%
Variation Δ [in %] of the number of muscle contractions (2 h) ([1]; 1.0 mM): 58%
Variation Δ [in %] of the number of muscle contractions (48 h) ([1]; 1.0 mM): 32%

C[C@H](N=C(N(C)C)N(C)C)C(=O)N1CCC[C@@H]1C(=O)N[C@@H](CCCNC(=N)N)C(=O)NCc1ccccc1 [4.11]
Variation Δ [in %] of the number of muscle contractions (1 min) ([1]; 0.1 mM): 105%
Variation Δ [in %] of the number of muscle contractions (2 h) ([1]; 0.1 mM): 75%
Variation Δ [in %] of the number of muscle contractions (48 h) ([1]; 0.1 mM): 96%
Variation Δ [in %] of the number of muscle contractions (1 min) ([1]; 0.5 mM): 105%
Variation Δ [in %] of the number of muscle contractions (2 h) ([1]; 0.5 mM): 16%
Variation Δ [in %] of the number of muscle contractions (48 h) ([1]; 0.5 mM): 22%
Variation Δ [in %] of the number of muscle contractions (1 min) ([1]; 1.0 mM): 104%
Variation Δ [in %] of the number of muscle contractions (2 h) ([1]; 1.0 mM): 7%
Variation Δ [in %] of the number of muscle contractions (48 h) ([1]; 1.0 mM): 0%

CSCC[C@H](NC(=O)[C@H](CCC(=O)O)NC(=O)[C@H](CCC(=O)O)NC(C)=O)C(=O)N[C@@H](CCC(N)=O)C(=O)N[C@@H](CCCNC(=N)N)C(=O)N[C@@H](CCCNC(=N)N)C(N)=O [Product A, Ac-Glu-Glu-Met-Gln-Arg-Arg-NH2, reference compound] (Ac-EEMQRR-NH2)
Variation Δ [in %] of the number of muscle contractions (1 min) ([1]; 0.05 mM): 103%
Variation Δ [in %] of the number of muscle contractions (2 h) ([1]; 0.05 mM): 96%
Variation Δ [in %] of the number of muscle contractions (1 min) ([1]; 0.1 mM): 103%
Variation Δ [in %] of the number of muscle contractions (2 h) ([1]; 0.1 mM): 120%
Variation Δ [in %] of the number of muscle contractions (1 min) ([1]; 0.5 mM): 106%
Variation Δ [in %] of the number of muscle contractions (2 h) ([1]; 0.5 mM): 91%
Variation Δ [in %] of the number of muscle contractions (1 min) ([1]; 1.0 mM): 99%
Variation Δ [in %] of the number of muscle contractions (2 h) ([1]; 1.0 mM): 88%
muscle-relaxing effect / activity profile with regard to muscle relaxation ([1]; result in words): too weak and too inconstant
acts weaker than Botox (factor) [2]: 5000 times
